Data on two compounds can be found in ChEMBL document CHEMBL1151449, “In vitro activity of DC-159a, a new broad-spectrum fluoroquinolone, compared with that of other agents against drug-susceptible and -resistant pneumococci” (2008).

Assay type in all cases: functional
Experiment [1] concerns Streptococcus pneumoniae. Kind of experiment: Antibacterial activity against macrolide-, quinolone-susceptible and penicillin-intermediate Streptococcus pneumoniae HMC 100 by broth microdilution method. A general note: Broth dilution looks for growth in wells or tubes with falling amounts of substance.
Experiment [2] deals with Streptococcus pneumoniae. Kind of experiment: Antibacterial activity against Streptococcus pneumoniae HMC 1066 harboring S81F mutation in quinolone-resistant determining regions of GyrA gene, S79F mutation in QRDR of ParC gene and I460V mutation in QRDR of ParE gene by agar dilution method.
In experiment [3] the test system is Streptococcus pneumoniae. Kind of experiment: Antibacterial activity against Streptococcus pneumoniae HMC 1541 harboring S81Y mutation in quinolone-resistant determining regions of GyrA gene, S79F, K137N mutation in QRDR of ParC gene and I460V mutation in QRDR of ParE gene by agar dilution method.
Experiment [4] deals with Streptococcus pneumoniae. Kind of experiment: Antibacterial activity against quinolone-resistant Streptococcus pneumoniae […] by agar dilution method. A general note: In agar dilution, organisms are placed on agar that contains the substance at set levels.
For experiment [5], the system named is Streptococcus pneumoniae. Kind of experiment: Antibacterial activity against Streptococcus pneumoniae HMC 1062 harboring S81F mutation in quinolone-resistant determining regions of GyrA gene, S79F mutation in QRDR of ParC gene and I460V mutation in QRDR of ParE gene by agar dilution method.
Experiment [6] relates to Streptococcus pneumoniae. Kind of experiment: Antibacterial activity against penicillin-, macrolide-susceptible and quinolone-resistant Streptococcus pneumoniae HMC 1074 harboring S81F mutation in quinolone-resistant determining regions of GyrA gene, S79F mutation in QRDR of ParC gene and I460V mutation in QRDR of ParE gene after 50 passages by broth microdilution method.

Experiment [7] relates to Streptococcus pneumoniae. Kind of experiment: Antibacterial activity against penicillin- and quinolone-susceptible Streptococcus pneumoniae HMC 5055 expressing mefA by broth microdilution method.
For experiment [8], the system named is Streptococcus pneumoniae. Kind of experiment: Antibacterial activity against penicillin-, macrolide- and quinolone-susceptible Streptococcus pneumoniae HMC 63 harboring S81F mutation in quinolone-resistant determining regions of GyrA gene, D83Y mutation in QRDR of ParC gene and I460V mutation in QRDR of ParE gene after 34 passages with gemifloxacin measured after 10 daily antibiotic-free subculturing by multi-step resistance selection technique.

Experiment [9] relates to Streptococcus pneumoniae. Kind of experiment: Antibacterial activity against Streptococcus pneumoniae HMC 1055 harboring S81F mutation in quinolone-resistant determining regions of GyrA gene, S79F, K137N mutation in QRDR of ParC gene and I460V mutation in QRDR of ParE gene by agar dilution method.
In experiment [10] the test system is Streptococcus pneumoniae. Kind of experiment: Antibacterial activity against macrolide-, quinolone-susceptible and penicillin-intermediate Streptococcus pneumoniae HMC 99 after 50 passages by broth microdilution method.
The subject of experiment [11] is Streptococcus pneumoniae. Kind of experiment: Antibacterial activity against penicillin-intermediate Streptococcus pneumoniae […] by agar dilution method.
The subject of experiment [12] is Streptococcus pneumoniae. Kind of experiment: Antibacterial activity against Streptococcus pneumoniae HMC 1074 harboring S81F mutation in quinolone-resistant determining regions of GyrA gene, S79F mutation in QRDR of ParC gene and I460V mutation in QRDR of ParE gene by agar dilution method.
Experiment [13] relates to Streptococcus pneumoniae. Kind of experiment: Antibacterial activity against macrolide-, quinolone-susceptible and penicillin-intermediate Streptococcus pneumoniae HMC 100 harboring S79Y mutation in quinolone-resistant determining regions of ParC gene after 34 passages with gemifloxacin measured after 10 daily antibiotic-free subculturing by multi-step resistance selection technique.

For experiment [14], the system named is Streptococcus pneumoniae. Kind of experiment: Antibacterial activity against Streptococcus pneumoniae HMC 1147 harboring S81F mutation in quinolone-resistant determining regions of GyrA gene, S79F mutation in QRDR of ParC gene and I460V mutation in QRDR of ParE gene showing efflux to gemifloxacin by agar dilution method.
Experiment [15] concerns Streptococcus pneumoniae. Kind of experiment: Antibacterial activity against penicillin-resistant and quinolone-susceptible Streptococcus pneumoniae HMC 3583 expressing mefA after 50 passages by broth microdilution method.
Experiment [16] deals with Streptococcus pneumoniae. Kind of experiment: Antibacterial activity against penicillin-resistant and quinolone-susceptible Streptococcus pneumoniae HMC 228 expressing ermB by broth microdilution method.
For experiment [17], the system named is Streptococcus pneumoniae. Kind of experiment: Antibacterial activity against Streptococcus pneumoniae HMC 1073 harboring S81F mutation in quinolone-resistant determining regions of GyrA gene, and I460V mutation in QRDR of ParE gene by agar dilution method.
Experiment [18] deals with Streptococcus pneumoniae. Kind of experiment: Antibacterial activity against Streptococcus pneumoniae HMC 5041 harboring S81F and S79F mutation in quinolone-resistant determining regions of GyrA and ParC genes respectively by agar dilution method.
Experiment [19] relates to Streptococcus pneumoniae. Kind of experiment: Antibacterial activity against penicillin- and quinolone-susceptible Streptococcus pneumoniae HMC 5055 expressing mefA after 50 passages by broth microdilution method.
Experiment [20] relates to Streptococcus pneumoniae. Kind of experiment: Antibacterial activity against penicillin-resistant and quinolone-susceptible Streptococcus pneumoniae HMC 3583 expressing mefA and harboring S81F mutation in quinolone-resistant determining regions of GyrA gene, D83N mutation in QRDR of ParC gene and I460V mutation in QRDR of ParE gene after 44 passages with levofloxacin measured after 10 daily antibiotic-free subculturing by multi-step resistance selection technique.

Experiment [21] relates to Streptococcus pneumoniae. Kind of experiment: Antibacterial activity against Streptococcus pneumoniae HMC 1139 harboring S81F mutation in quinolone-resistant determining regions of GyrA gene, S79F, K137N mutation in QRDR of ParC gene and I460V mutation in QRDR of ParE gene by agar dilution method.
The subject of experiment [22] is Streptococcus pneumoniae. Kind of experiment: Antibacterial activity against penicillin-susceptible, quinolone-resistant Streptococcus pneumoniae 1072 expressing ermB and harboring S81F mutation in quinolone-resistant determining regions of GyrA gene, S79Y mutation in QRDR of ParC gene and I460V mutation in QRDR of ParE gene by broth microdilution method.
Experiment [23] concerns Streptococcus pneumoniae. Kind of experiment: Antibacterial activity against penicillin-resistant Streptococcus pneumoniae […] by agar dilution method.
Experiment [24] deals with Streptococcus pneumoniae. Kind of experiment: Antibacterial activity against penicillin-, macrolide- and quinolone-susceptible Streptococcus pneumoniae HMC 63 by broth microdilution method.
Experiment [25] has as its system Streptococcus pneumoniae. Kind of experiment: Antibacterial activity against Streptococcus pneumoniae HMC 1068 harboring E85K mutation in quinolone-resistant determining regions of GyrA gene, S79Y, K137N mutation in QRDR of ParC gene and I460V mutation in QRDR of ParE gene showing efflux to ciprofloxacin, levofloxacin by agar dilution method.
The subject of experiment [26] is Streptococcus pneumoniae. Kind of experiment: Antibacterial activity against Streptococcus pneumoniae HMC 3041 after 50 passages by broth microdilution method.
Experiment [27] concerns Streptococcus pneumoniae. Kind of experiment: Antibacterial activity against Streptococcus pneumoniae HMC 1071 harboring S81F mutation in quinolone-resistant determining regions of GyrA gene and S79F, K137N mutation in QRDR of ParC gene by agar dilution method.
The subject of experiment [28] is Streptococcus pneumoniae. Kind of experiment: Antibacterial activity against Streptococcus pneumoniae HMC 2527 harboring S81Y mutation in quinolone-resistant determining regions of GyrA gene, S79F, K137N mutation in QRDR of ParC gene and I460V mutation in QRDR of ParE gene by agar dilution method.
Experiment [29] deals with Streptococcus pneumoniae. Kind of experiment: Antibacterial activity against Streptococcus pneumoniae HMC 1058 harboring S79F, K137N mutation in quinolone-resistant determining regions of ParC gene and 460V mutation in QRDR of ParE gene by agar dilution method.

Values after ≈ are worked out from the molar mass of the structure shown. Where only a bound is given, the exact number is not on record here.

A word on the MIC: it is the lowest concentration found to suppress growth. What is called MIC50 is an inhibitory concentration at the 50% level, which refers to growth in some studies and to a panel of isolates in others. A lower MIC50 goes with higher susceptibility. By MIC90 is commonly meant an inhibitory concentration at the 90% level, which refers to growth in some studies and to a panel of isolates in others. High values mean lower susceptibility, low ones higher susceptibility.

Take `COc1c(N2CC3(CC3)[C@](C)(N)C2)c(F)cc2c(=O)c(C(=O)O)cn([C@@H]3C[C@@H]3F)c12.O`: the MIC in the experiment with Streptococcus pneumoniae [1] is 0.12 µg/mL; against Streptococcus pneumoniae [2], 0.5 µg/mL; against Streptococcus pneumoniae [3], 0.5 µg/mL; with Streptococcus pneumoniae [5] it was 1 µg/mL; with Streptococcus pneumoniae [6] it was 1 µg/mL; with Streptococcus pneumoniae [7], 0.12 µg/mL. Also, the minimal inhibitory concentration (MIC) in the experiment with Streptococcus pneumoniae [8] came out at 1 µg/mL; with Streptococcus pneumoniae [9], 1 µg/mL; against Streptococcus pneumoniae [10], 0.125 µg/mL; against Streptococcus pneumoniae [12], 0.5 µg/mL; with Streptococcus pneumoniae [13] it was 0.5 µg/mL; against Streptococcus pneumoniae [14], 1 µg/mL. Moreover, the MIC in the experiment on Streptococcus pneumoniae [15] amounted to 1 µg/mL; against Streptococcus pneumoniae [16], 0.12 µg/mL; with Streptococcus pneumoniae [17], 1 µg/mL; in the experiment on Streptococcus pneumoniae [18], 1 µg/mL; with Streptococcus pneumoniae [19] it was 0.125 µg/mL; in the experiment on Streptococcus pneumoniae [20], 1 µg/mL. Besides, the MIC against Streptococcus pneumoniae [21] was determined as 1 µg/mL; in the experiment on Streptococcus pneumoniae [22] it was 1 µg/mL; with Streptococcus pneumoniae [24], 0.12 µg/mL; in the experiment with Streptococcus pneumoniae [25], 1 µg/mL; against Streptococcus pneumoniae [26] it was 0.125 µg/mL; in the experiment on Streptococcus pneumoniae [27] it was 1 µg/mL. Also, the figures for the MIC with Streptococcus pneumoniae [28] and with Streptococcus pneumoniae [29] were 1 µg/mL and 0.5 µg/mL, respectively. For the same compound, the MIC50 is 1 µg/mL with Streptococcus pneumoniae [4], 0.12 µg/mL against Streptococcus pneumoniae [11] and 0.12 µg/mL against Streptococcus pneumoniae [23]. Further, the values for the MIC90 against Streptococcus pneumoniae [4], with Streptococcus pneumoniae [11] and in the experiment with Streptococcus pneumoniae [23] were 1 µg/mL, 0.12 µg/mL and 0.5 µg/mL, respectively.
In the case of `CC[C@H]1OC(=O)[C@H](C)[C@@H](O[C@H]2C[C@@](C)(OC)[C@@H](O)[C@H](C)O2)[C@H](C)[C@@H](O[C@@H]2O[C@H](C)C[C@H](N(C)C)[C@H]2O)[C@](C)(O)C[C@@H](C)CN(C)[C@H](C)[C@@H](O)[C@]1(C)O` [AZITHROMYCIN], the MIC in the experiment with Streptococcus pneumoniae [1] was determined as 0.03 µg/mL (≈ 0.0401 µM); with Streptococcus pneumoniae [6], 0.03 µg/mL (≈ 0.0401 µM); against Streptococcus pneumoniae [7] it was 2 µg/mL (≈ 2.67 µM); against Streptococcus pneumoniae [8], 0.03 µg/mL (≈ 0.0401 µM); with Streptococcus pneumoniae [10] it was 0.06 µg/mL (≈ 0.0801 µM); in the experiment on Streptococcus pneumoniae [13], 0.06 µg/mL (≈ 0.0801 µM). For the same compound, the MIC is 4 µg/mL (≈ 5.34 µM) against Streptococcus pneumoniae [15]; greater than 64 µg/mL in the experiment on Streptococcus pneumoniae [16]; 8 µg/mL (≈ 10.7 µM) in the experiment with Streptococcus pneumoniae [19]; 2 µg/mL (≈ 2.67 µM) with Streptococcus pneumoniae [20]; greater than 64 µg/mL against Streptococcus pneumoniae [22]; 0.016 µg/mL (≈ 0.0214 µM) with Streptococcus pneumoniae [24]. The results for the MIC50 with Streptococcus pneumoniae [4], with Streptococcus pneumoniae [11] and in the experiment on Streptococcus pneumoniae [23] were 0.06 µg/mL (≈ 0.0801 µM), 0.12 µg/mL (≈ 0.16 µM) and 2 µg/mL (≈ 2.67 µM), respectively. Moreover, in the experiment on Streptococcus pneumoniae [11], the MIC90 was greater than 64 µg/mL.
